# Measurements from the supplement of paper PMC10307832.
# Assays:
# Experiment in all cases: relative viability (nuclei count vs DMSO), 5 days (fraction); higher = more cells survive
# [1] = compound: CC(C)(C)c1nc(-c2cccc(NS(=O)(=O)c3c(F)cccc3F)c2F)c(-c2ccnc(N)n2)s1 [Dabrafenib] + CS(=O)(=O)CCNCc1ccc(-c2ccc3ncnc(Nc4ccc(OCc5cccc(F)c5)c(Cl)c4)c3c2)o1 [Lapatinib] (partner 2 µM)
# Outline: (§1)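 Lung cancer cell lines were pin-tool dosed in 1536-well plates on the day after seeding, with either a lone drug or a fixed anchor-drug dose plus five library-drug doses (not always all listed) in √10 steps. Nuclei were counted on 4× images after 5 days. Relative viability is the ratio of treated-well to vehicle-well nuclei counts, with each value a median of duplicate plates.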
# [2] = compound: NC(=O)c1ccc(N(C(N)=O)c2c(F)cccc2F)nc1-c1ccc(F)cc1F [VX-702] + NC(=O)Nc1cc(-c2cccc(F)c2)sc1C(=O)N[C@H]1CCCNC1 [AZD7762] (partner 0.2 µM)
# Outline: as §1
# [3] = compound: NC(=O)c1ccc(N(C(N)=O)c2c(F)cccc2F)nc1-c1ccc(F)cc1F [VX-702] + COc1cccc2cc(-c3nc([C@H]4CC[C@H](C(=O)O)CC4)n4ncnc(N)c34)[nH]c12 [OSI-027] (partner 0.5 µM)
# Outline: as §1
# [4] = compound: CC(C)(C)c1nc(-c2cccc(NS(=O)(=O)c3c(F)cccc3F)c2F)c(-c2ccnc(N)n2)s1 [Dabrafenib] + COc1cc2c(Oc3ccc(NC(=O)C4(C(=O)Nc5ccc(F)cc5)CC4)cc3F)ccnc2cc1OCCCN1CCOCC1 [Foretinib] (partner 0.25 µM)
# Outline: as §1
Cell Line,relative viability ([1]; first compound 0.003 µM),relative viability ([1]; first compound 0.009487 µM),relative viability ([1]; first compound 0.03 µM),relative viability ([1]; first compound 0.09487 µM),relative viability ([1]; first compound 0.3 µM),relative viability ([2]; first compound 0.02 µM),relative viability ([2]; first compound 0.2 µM),relative viability ([2]; first compound 0.6325 µM),relative viability ([2]; first compound 2 µM),relative viability ([3]; first compound 0.02 µM),relative viability ([3]; first compound 0.2 µM),relative viability ([3]; first compound 0.6325 µM),relative viability ([3]; first compound 2 µM),relative viability ([4]; first compound 0.003 µM),relative viability ([4]; first compound 0.009487 µM),relative viability ([4]; first compound 0.03 µM),relative viability ([4]; first compound 0.09487 µM),relative viability ([4]; first compound 0.3 µM)
PC-14,0.282,0.418,0.363,0.317,0.364,0.411,0.353,0.37,0.265,0.893,0.966,0.849,0.806,0.861,0.972,0.933,0.979,0.958
RERF-LC-KJ,0.851,0.9,0.893,0.907,1.04,1.25,0.963,1.11,1.09,0.608,0.547,0.57,0.534,0.854,0.859,0.845,0.935,1.09
ChaGo-K-1,,,,,,0.958,0.879,0.896,0.879,0.641,0.624,0.567,0.566,1.05,0.902,0.906,0.883,0.95
H3255,0.186,0.264,0.213,0.316,0.247,0.987,0.901,0.994,0.996,0.666,0.684,0.541,0.63,0.688,0.897,1.09,0.667,0.839
NCI-H1299,1.01,0.952,0.957,0.932,0.824,,,,,,,,,1.05,1.09,1.07,1.03,1.08
NCI-H1563,0.831,1.06,0.633,0.928,0.938,,,,,0.77,0.748,0.738,0.722,0.856,0.981,0.824,1.04,1.01
SK-MES-1,0.418,0.546,0.525,0.506,0.598,,,,,0.669,0.666,0.584,0.542,0.653,0.905,1,0.796,0.995
NCI-H1648,,,,,,0.709,0.583,0.634,0.563,0.278,0.275,0.251,0.253,,,,,
NCI-H1755,0.957,1.07,0.928,1,0.986,0.456,0.442,0.447,0.367,0.857,0.829,0.721,0.718,0.879,0.894,0.767,0.876,0.911
NCI-H1651,0.849,0.818,0.84,0.938,0.834,0.474,0.429,0.468,0.455,0.733,0.685,0.786,0.652,0.725,0.728,0.631,0.799,0.761
NCI-H23,,1.21,1.08,0.712,1.02,0.294,0.35,0.305,0.208,0.604,0.643,0.688,0.559,,1.04,0.906,0.878,0.873
A549,0.899,1.06,1.07,1,1.04,,,,,,,,,0.979,0.988,0.911,0.988,0.975
NCI-H661,0.471,0.486,0.364,0.458,0.455,,,,,0.708,0.702,0.748,0.893,1.01,0.983,0.97,1.01,1.01
NCI-H650,,1.1,0.623,0.514,0.435,0.943,0.894,0.936,1.16,0.562,,0.567,0.595,,0.959,0.793,0.734,0.585
NCI-H2009,0.311,1,0.872,0.606,0.484,,,,,0.688,0.88,0.774,0.801,1.21,1.18,1.24,0.995,0.911
LC-2-ad,0.862,1.01,0.976,0.886,0.925,0.837,0.854,0.892,0.973,0.844,0.814,0.999,0.949,,1.09,0.82,0.922,1.1
HCC-366,,1.08,0.776,1.05,1.2,0.381,0.218,0.372,0.123,1.09,0.899,0.932,0.107,0.894,0.944,0.812,0.875,0.891
UMC-11,1.01,1.08,0.812,1.08,0.959,,,,,0.482,0.446,0.458,0.533,1.13,1.12,1.06,0.984,1.13
PC-3 [JPC-3],0.448,0.509,0.416,0.434,0.429,0.797,0.853,0.894,0.84,0.8,0.768,0.818,0.644,1,1.09,1.1,0.997,1.01
NCI-H596,0.994,1.11,0.814,1.04,1.05,1.1,1.03,1.12,1.09,0.807,0.737,0.797,0.823,,0.928,0.575,0.686,0.861
NCI-H441,,,,,,1.25,1.08,1.13,1.02,0.564,0.547,0.5,0.544,,1.11,0.941,1.05,0.843
LOU-NH91,,0.789,0.683,0.772,0.802,0.766,0.753,0.721,0.695,0.767,0.734,0.751,0.528,0.858,1.01,0.894,0.918,0.958

Cell Line,relative viability ([1]; first compound 0.003 µM),relative viability ([1]; first compound 0.009487 µM),relative viability ([1]; first compound 0.03 µM),relative viability ([1]; first compound 0.09487 µM),relative viability ([1]; first compound 0.3 µM),relative viability ([2]; first compound 0.02 µM),relative viability ([2]; first compound 0.2 µM),relative viability ([2]; first compound 0.6325 µM),relative viability ([2]; first compound 2 µM),relative viability ([3]; first compound 0.02 µM),relative viability ([3]; first compound 0.2 µM),relative viability ([3]; first compound 0.6325 µM),relative viability ([3]; first compound 2 µM),relative viability ([4]; first compound 0.003 µM),relative viability ([4]; first compound 0.009487 µM),relative viability ([4]; first compound 0.03 µM),relative viability ([4]; first compound 0.09487 µM),relative viability ([4]; first compound 0.3 µM)
IA-LM,0.774,0.7,0.835,0.689,0.464,,,,,,,,,1.13,1.08,1.08,0.977,1.13
EBC-1,,0.233,0.223,0.23,0.274,,,,,,,,,0.102,0.0889,0.103,0.0949,0.108
NCI-H727,,0.811,0.658,0.755,0.817,0.436,0.526,0.502,0.574,0.721,0.614,0.543,0.642,,0.886,0.601,0.947,1.1
NCI-H1395,,1.02,0.821,0.85,0.973,0.419,0.427,0.411,0.408,0.725,0.642,0.663,0.677,0.997,0.892,1.09,0.874,0.82
NCI-H2126,0.735,0.783,0.75,0.842,0.89,0.995,0.979,1.02,1.05,0.774,0.593,0.693,0.713,1.15,1.22,1.15,1,1.43
LCLC-97TM1,,1.19,0.994,,0.916,0.356,0.175,0.301,0.301,0.424,0.595,0.37,0.404,0.938,0.99,0.972,0.864,0.953
NCI-H1650,0.632,1.12,0.639,0.953,1.11,,,,,0.635,0.652,0.806,0.541,1.03,1.3,0.895,1.45,1.71
NCI-H522,,,,,,0.92,0.833,0.689,0.931,0.649,0.718,0.681,0.747,,,,,
HCC-44,0.996,0.982,1.11,0.86,0.964,1.05,1.03,1.06,1.04,0.48,0.433,0.491,0.485,,,,,
NCI-H2023,0.617,1.09,0.979,0.79,0.961,,,,,0.349,0.445,0.441,0.416,0.866,0.922,0.796,0.877,1.02
Calu-6,1.18,1.03,0.911,0.848,0.886,,,,,,,,,0.878,0.964,0.84,0.84,0.654
LCLC-103H,,,,,,0.76,0.816,0.825,0.873,0.49,0.485,0.417,0.458,0.762,0.791,0.737,0.804,0.849
COR-L23,0.984,1.1,0.92,0.874,0.913,,,,,0.989,0.75,0.766,0.961,0.947,0.982,0.873,0.882,0.935
NCI-H2342,,,,,,0.607,0.644,0.6,0.552,0.632,0.651,0.644,0.692,1.04,1.18,0.954,1.09,1.2
NCI-H520,0.856,0.867,0.642,0.816,0.727,,,,,0.321,0.287,0.268,0.23,0.909,0.78,0.455,0.74,0.661
NCI-H1703,1.2,1.6,0.938,0.896,1.09,0.123,0.117,,0.115,,,,,0.354,0.327,0.34,0.334,0.447
SK-LU-1,,0.804,0.653,0.664,0.719,,,,,0.386,0.341,0.339,0.354,,0.848,0.633,0.64,0.757
COR-L 105,0.273,0.367,0.3,0.375,0.426,,,,,0.661,0.679,0.688,0.517,0.971,1.32,1.18,1.11,1.41
SW 1573,0.883,0.864,1.17,1.1,1.11,,,,,0.715,0.636,0.504,0.482,0.757,0.992,0.806,1.01,1.05
NCI-H1792,,0.881,0.813,0.792,0.912,0.635,0.669,0.707,0.706,0.667,0.669,0.682,0.683,,,,,
NCI-H1623,,,,,,,,,,0.403,0.406,0.424,0.43,,0.869,0.846,0.829,1.12
NCI-H2228,0.856,1.2,1.01,1.01,1.14,,,,,0.649,0.514,0.534,0.683,,0.95,0.797,0.749,0.97
